Results from PubChem BioAssay (NCI).
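Cells were grown in 96-well plates and exposed to each compound for 48 hours at five concentrations; endpoints were interpolated linearly between bracketing concentrations, or set to the highest concentration if not reached. Definition used: TGI = concentration required for complete inhibition of growth.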

How the values were obtained:
Experiment in all cases: inhibition of tumour cell growth, NCI panel, 48 h
MDA-MB-231 breast = tested on: MDA-MB-231 breast
HCC-2998 colon = tested on: HCC-2998 colon
K-562 leukemia = tested on: K-562 leukemia
786-0 renal = tested on: 786-0 renal
SNB-75 CNS = tested on: SNB-75 CNS
HCT-116 colon = tested on: HCT-116 colon
UACC-257 melanoma = tested on: UACC-257 melanoma
SN12C renal = tested on: SN12C renal
ACHN renal = tested on: ACHN renal
SK-OV-3 ovarian = tested on: SK-OV-3 ovarian
NCI/ADR-RES ovarian = tested on: NCI/ADR-RES ovarian
UO-31 renal = tested on: UO-31 renal
DU-145 prostate = tested on: DU-145 prostate
EKVX NSCLC = tested on: EKVX NSCLC
SK-MEL-28 melanoma = tested on: SK-MEL-28 melanoma
RPMI-8226 leukemia = tested on: RPMI-8226 leukemia
HL-60(TB) leukemia = tested on: HL-60(TB) leukemia
OVCAR-4 ovarian = tested on: OVCAR-4 ovarian
SNB-19 CNS = tested on: SNB-19 CNS
IGROV1 ovarian = tested on: IGROV1 ovarian
M14 melanoma = tested on: M14 melanoma
HOP-92 NSCLC = tested on: HOP-92 NSCLC
OVCAR-3 ovarian = tested on: OVCAR-3 ovarian
HCT-15 colon = tested on: HCT-15 colon
SF-295 CNS = tested on: SF-295 CNS
MDA-MB-435 = tested on: MDA-MB-435
COLO 205 colon = tested on: COLO 205 colon
U251 CNS = tested on: U251 CNS
RXF 393 renal = tested on: RXF 393 renal
SR leukemia = tested on: SR leukemia
SF-268 CNS = tested on: SF-268 CNS
TK-10 renal = tested on: TK-10 renal
MALME-3M melanoma = tested on: MALME-3M melanoma
MDA-N = tested on: MDA-N
NCI-H460 lung = tested on: NCI-H460 lung
T-47D breast = tested on: T-47D breast
HT29 colon = tested on: HT29 colon
HS 578T breast = tested on: HS 578T breast
NCI-H522 lung = tested on: NCI-H522 lung
SK-MEL-2 melanoma = tested on: SK-MEL-2 melanoma
BT-549 breast = tested on: BT-549 breast
NCI-H226 lung = tested on: NCI-H226 lung
MCF7 breast = tested on: MCF7 breast
MOLT-4 leukemia = tested on: MOLT-4 leukemia
A549 NSCLC = tested on: A549 NSCLC
SK-MEL-5 melanoma = tested on: SK-MEL-5 melanoma
SF-539 CNS = tested on: SF-539 CNS
CCRF-CEM leukemia = tested on: CCRF-CEM leukemia
PC-3 prostate = tested on: PC-3 prostate
NCI-H23 lung = tested on: NCI-H23 lung
KM12 colon = tested on: KM12 colon
UACC-62 melanoma = tested on: UACC-62 melanoma
CAKI-1 renal = tested on: CAKI-1 renal
OVCAR-5 ovarian = tested on: OVCAR-5 ovarian
OVCAR-8 ovarian = tested on: OVCAR-8 ovarian
SW-620 colon = tested on: SW-620 colon
LOX IMVI melanoma = tested on: LOX IMVI melanoma
A498 renal = tested on: A498 renal
HOP-62 NSCLC = tested on: HOP-62 NSCLC

COc1ccc2c(O)c(S(=O)(=O)c3ccc(C)cc3)c(=O)oc2c1OC
TGI (MDA-MB-231 breast): > 100 µM
TGI (HCC-2998 colon): > 100 µM
TGI (K-562 leukemia): > 100 µM
TGI (786-0 renal): > 100 µM
TGI (SNB-75 CNS): > 100 µM
TGI (HCT-116 colon): > 100 µM
TGI (UACC-257 melanoma): > 100 µM
TGI (SN12C renal): > 100 µM
TGI (ACHN renal): > 100 µM
TGI (SK-OV-3 ovarian): > 100 µM
TGI (NCI/ADR-RES ovarian): > 100 µM
TGI (UO-31 renal): > 100 µM
TGI (DU-145 prostate): > 100 µM
TGI (EKVX NSCLC): > 100 µM
TGI (SK-MEL-28 melanoma): > 100 µM
TGI (RPMI-8226 leukemia): > 100 µM
TGI (HL-60(TB) leukemia): > 100 µM
TGI (OVCAR-4 ovarian): > 100 µM
TGI (SNB-19 CNS): > 100 µM
TGI (IGROV1 ovarian): > 100 µM
TGI (M14 melanoma): > 100 µM
TGI (HOP-92 NSCLC): > 100 µM
TGI (OVCAR-3 ovarian): > 100 µM
TGI (HCT-15 colon): > 100 µM
TGI (SF-295 CNS): > 100 µM
TGI (MDA-MB-435): > 100 µM
TGI (COLO 205 colon): > 100 µM
TGI (U251 CNS): > 100 µM
TGI (RXF 393 renal): > 100 µM
TGI (SR leukemia): > 100 µM
TGI (SF-268 CNS): > 100 µM
TGI (TK-10 renal): > 100 µM
TGI (MALME-3M melanoma): > 100 µM
TGI (MDA-N): > 100 µM
TGI (NCI-H460 lung): > 100 µM
TGI (T-47D breast): > 100 µM
TGI (HT29 colon): > 100 µM
TGI (HS 578T breast): > 100 µM
TGI (NCI-H522 lung): > 100 µM
TGI (SK-MEL-2 melanoma): > 100 µM
TGI (BT-549 breast): > 100 µM
TGI (NCI-H226 lung): > 100 µM
TGI (MCF7 breast): > 100 µM
TGI (MOLT-4 leukemia): > 100 µM
TGI (A549 NSCLC): > 100 µM
TGI (SK-MEL-5 melanoma): > 100 µM
TGI (SF-539 CNS): > 100 µM
TGI (CCRF-CEM leukemia): > 100 µM
TGI (PC-3 prostate): > 100 µM
TGI (NCI-H23 lung): > 100 µM
TGI (KM12 colon): > 100 µM
TGI (UACC-62 melanoma): > 100 µM
TGI (CAKI-1 renal): > 100 µM
TGI (OVCAR-5 ovarian): > 100 µM
TGI (OVCAR-8 ovarian): > 100 µM
TGI (SW-620 colon): > 100 µM

CC(=O)C(C(=O)c1ccc(C)cc1)[C@H]1OC(C)(C)O[C@H]1[C@H]1COC(C)(C)O1 (some centres not stated)
TGI (MDA-MB-231 breast): 13.6 µM
TGI (HCC-2998 colon): 14.2 µM
TGI (K-562 leukemia): > 50 µM
TGI (786-0 renal): 8.75 µM
TGI (SNB-75 CNS): 10.8 µM
TGI (HCT-116 colon): 6.81 µM
TGI (UACC-257 melanoma): 11.9 µM
TGI (SN12C renal): 6.39 µM
TGI (LOX IMVI melanoma): 8.16 µM
TGI (ACHN renal): 13.2 µM
TGI (SK-OV-3 ovarian): 18.4 µM
TGI (NCI/ADR-RES ovarian): > 50 µM
TGI (UO-31 renal): 14 µM
TGI (EKVX NSCLC): 11.7 µM
TGI (SK-MEL-28 melanoma): 15.8 µM
TGI (RPMI-8226 leukemia): > 50 µM
TGI (A498 renal): 14.7 µM
TGI (OVCAR-4 ovarian): 9.37 µM
TGI (SNB-19 CNS): 17.3 µM
TGI (IGROV1 ovarian): 11 µM
TGI (M14 melanoma): 14.4 µM
TGI (HOP-92 NSCLC): 16.7 µM
TGI (HCT-15 colon): 31.6 µM
TGI (SF-295 CNS): 16.9 µM
TGI (MDA-MB-435): 9.55 µM
TGI (COLO 205 colon): 18.7 µM
TGI (HOP-62 NSCLC): 14.3 µM
TGI (U251 CNS): 7 µM
TGI (RXF 393 renal): 9.01 µM
TGI (SR leukemia): > 50 µM
TGI (SF-268 CNS): 28.5 µM
TGI (TK-10 renal): 14.5 µM
TGI (MALME-3M melanoma): 18.4 µM
TGI (MDA-N): 6.63 µM
TGI (NCI-H460 lung): 17.2 µM
TGI (T-47D breast): 18.9 µM
TGI (HT29 colon): 9.35 µM
TGI (HS 578T breast): > 50 µM
TGI (NCI-H522 lung): 14.2 µM
TGI (SK-MEL-2 melanoma): 9.52 µM
TGI (BT-549 breast): > 50 µM
TGI (NCI-H226 lung): 29.2 µM
TGI (MCF7 breast): 8.68 µM
TGI (MOLT-4 leukemia): > 50 µM
TGI (A549 NSCLC): 22.9 µM
TGI (SK-MEL-5 melanoma): 12.2 µM
TGI (SF-539 CNS): 6.3 µM
TGI (PC-3 prostate): 9.17 µM
TGI (NCI-H23 lung): 10 µM
TGI (KM12 colon): 18.9 µM
TGI (UACC-62 melanoma): 12.5 µM
TGI (CAKI-1 renal): 12.8 µM
TGI (OVCAR-5 ovarian): 18.3 µM
TGI (OVCAR-8 ovarian): 12.6 µM
TGI (SW-620 colon): 10.8 µM

COc1ccc(-c2oc3cc(OC)c(OC)c(O)c3c(=O)c2OC)cc1
TGI (MDA-MB-231 breast): 50 µM
TGI (HCC-2998 colon): > 100 µM
TGI (K-562 leukemia): > 100 µM
TGI (786-0 renal): 68.2 µM
TGI (SNB-75 CNS): 37.4 µM
TGI (HCT-116 colon): > 100 µM
TGI (UACC-257 melanoma): > 100 µM
TGI (SN12C renal): > 100 µM
TGI (LOX IMVI melanoma): > 100 µM
TGI (ACHN renal): > 100 µM
TGI (SK-OV-3 ovarian): > 100 µM
TGI (NCI/ADR-RES ovarian): > 100 µM
TGI (UO-31 renal): > 100 µM
TGI (DU-145 prostate): > 100 µM
TGI (EKVX NSCLC): > 100 µM
TGI (SK-MEL-28 melanoma): > 100 µM
TGI (RPMI-8226 leukemia): > 100 µM
TGI (HL-60(TB) leukemia): > 100 µM
TGI (OVCAR-4 ovarian): > 100 µM
TGI (SNB-19 CNS): > 100 µM
TGI (IGROV1 ovarian): 56.8 µM
TGI (M14 melanoma): > 100 µM
TGI (HOP-92 NSCLC): 33.8 µM
TGI (HCT-15 colon): > 100 µM
TGI (SF-295 CNS): 46.9 µM
TGI (MDA-MB-435): > 100 µM
TGI (COLO 205 colon): > 100 µM
TGI (HOP-62 NSCLC): > 100 µM
TGI (U251 CNS): > 100 µM
TGI (RXF 393 renal): 78.8 µM
TGI (SR leukemia): > 100 µM
TGI (SF-268 CNS): 98.4 µM
TGI (TK-10 renal): > 100 µM
TGI (MALME-3M melanoma): > 100 µM
TGI (MDA-N): > 100 µM
TGI (NCI-H460 lung): > 100 µM
TGI (T-47D breast): > 100 µM
TGI (HT29 colon): > 100 µM
TGI (HS 578T breast): 72.3 µM
TGI (NCI-H522 lung): > 100 µM
TGI (SK-MEL-2 melanoma): > 100 µM
TGI (BT-549 breast): 42 µM
TGI (NCI-H226 lung): > 100 µM
TGI (MCF7 breast): > 100 µM
TGI (MOLT-4 leukemia): > 100 µM
TGI (A549 NSCLC): > 100 µM
TGI (SK-MEL-5 melanoma): > 100 µM
TGI (SF-539 CNS): > 100 µM
TGI (CCRF-CEM leukemia): > 100 µM
TGI (PC-3 prostate): > 100 µM
TGI (KM12 colon): > 100 µM
TGI (UACC-62 melanoma): 84.4 µM
TGI (CAKI-1 renal): > 100 µM
TGI (OVCAR-5 ovarian): > 100 µM
TGI (OVCAR-8 ovarian): > 100 µM
TGI (SW-620 colon): > 100 µM
